Assays:
TLR8 = target: T1, TLR8 (Homo sapiens, UniProt Q9NR97); assay: HEK/293 TLR8 Cell Assay; format: cell-based; details: HEK cells, R848 agonist 30 uM final concentration, Steady-Glo readout; read-out: TLR8 potency
T1 construct: expressed in transfected cells; host or cells: HEK/293 reporter cells (NF-kB luciferase)
T1 sequence (Q9NR97 27-1041): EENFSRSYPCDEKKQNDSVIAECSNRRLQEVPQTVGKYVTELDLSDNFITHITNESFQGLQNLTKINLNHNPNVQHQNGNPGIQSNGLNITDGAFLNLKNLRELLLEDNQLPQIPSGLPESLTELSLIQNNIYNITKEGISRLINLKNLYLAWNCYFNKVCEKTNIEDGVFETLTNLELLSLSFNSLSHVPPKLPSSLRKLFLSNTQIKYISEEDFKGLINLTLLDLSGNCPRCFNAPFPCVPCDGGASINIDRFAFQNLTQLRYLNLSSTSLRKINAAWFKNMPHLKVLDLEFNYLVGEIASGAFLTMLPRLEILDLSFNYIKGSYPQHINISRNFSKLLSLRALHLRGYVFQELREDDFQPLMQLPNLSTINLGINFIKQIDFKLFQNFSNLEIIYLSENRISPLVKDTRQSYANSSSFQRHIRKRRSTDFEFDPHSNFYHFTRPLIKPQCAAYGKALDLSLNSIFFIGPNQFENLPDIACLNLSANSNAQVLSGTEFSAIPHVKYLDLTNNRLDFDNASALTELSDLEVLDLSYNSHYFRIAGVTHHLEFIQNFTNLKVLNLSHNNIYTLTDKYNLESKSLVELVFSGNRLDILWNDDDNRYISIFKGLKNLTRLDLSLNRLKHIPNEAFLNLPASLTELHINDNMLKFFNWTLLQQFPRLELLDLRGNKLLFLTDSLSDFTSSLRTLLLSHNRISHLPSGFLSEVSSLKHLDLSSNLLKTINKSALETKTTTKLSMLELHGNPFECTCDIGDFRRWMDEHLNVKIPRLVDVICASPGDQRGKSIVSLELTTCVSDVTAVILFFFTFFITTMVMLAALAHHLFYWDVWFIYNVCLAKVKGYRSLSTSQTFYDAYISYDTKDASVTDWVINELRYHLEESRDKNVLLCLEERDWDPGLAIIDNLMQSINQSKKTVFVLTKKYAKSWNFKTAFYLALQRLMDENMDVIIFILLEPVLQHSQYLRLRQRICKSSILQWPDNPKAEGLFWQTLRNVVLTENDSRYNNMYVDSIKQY

TLR7 = target: T2, TLR7 (Homo sapiens, UniProt Q9NYK1); assay: HEK/293 TLR7 Cell Assay; format: cell-based; details: TLR7/NFKb HEK cells, R848 agonist 10 uM final concentration, Steady-Glo readout; read-out: TLR7 potency
T2 construct: expressed in transfected cells; host or cells: HEK/293 cells carrying TLR7 and an NF-kB luciferase reporter
T2 sequence (Q9NYK1 27-1049): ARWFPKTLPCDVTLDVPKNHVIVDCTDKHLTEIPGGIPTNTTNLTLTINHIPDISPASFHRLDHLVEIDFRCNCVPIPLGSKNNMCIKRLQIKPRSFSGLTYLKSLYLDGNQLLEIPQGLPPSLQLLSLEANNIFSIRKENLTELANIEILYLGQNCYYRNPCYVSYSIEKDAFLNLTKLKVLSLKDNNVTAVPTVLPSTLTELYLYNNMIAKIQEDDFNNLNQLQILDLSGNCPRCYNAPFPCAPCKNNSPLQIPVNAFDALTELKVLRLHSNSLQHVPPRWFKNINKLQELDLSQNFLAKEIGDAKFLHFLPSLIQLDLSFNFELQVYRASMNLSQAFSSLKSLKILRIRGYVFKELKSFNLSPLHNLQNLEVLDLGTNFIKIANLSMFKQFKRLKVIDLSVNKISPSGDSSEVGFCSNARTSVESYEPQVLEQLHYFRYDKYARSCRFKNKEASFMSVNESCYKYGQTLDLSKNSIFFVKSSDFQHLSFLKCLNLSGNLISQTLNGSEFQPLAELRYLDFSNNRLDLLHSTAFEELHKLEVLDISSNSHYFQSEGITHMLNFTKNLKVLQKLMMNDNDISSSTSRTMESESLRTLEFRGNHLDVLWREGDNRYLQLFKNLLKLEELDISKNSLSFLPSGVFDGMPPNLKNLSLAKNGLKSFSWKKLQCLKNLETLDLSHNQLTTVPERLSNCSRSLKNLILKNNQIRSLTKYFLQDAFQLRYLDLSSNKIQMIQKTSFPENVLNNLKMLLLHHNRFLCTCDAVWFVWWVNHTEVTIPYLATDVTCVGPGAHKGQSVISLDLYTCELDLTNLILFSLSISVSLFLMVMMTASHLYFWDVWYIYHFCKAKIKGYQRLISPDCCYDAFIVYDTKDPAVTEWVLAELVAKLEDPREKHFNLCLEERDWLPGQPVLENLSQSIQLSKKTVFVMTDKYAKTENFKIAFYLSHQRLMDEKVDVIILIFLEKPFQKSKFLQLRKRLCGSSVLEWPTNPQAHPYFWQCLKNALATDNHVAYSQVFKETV
Method in brief: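 Compounds added to HEK cells expressing TLR7 with an NFκB reporter 30 min ahead of 10 uM R848 challenge; luciferase signal (Steady-Glo) measured after 5 h, cells having been seeded 24 h earlier at 5000 per well.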

Row | Compound | IC50 (TLR8) [nM] | IC50 (TLR7) [nM]
1 | C[C@H]1C[C@@H](NC2CS(=O)(=O)C2)CN(c2ccc(C#N)c3nccnc23)C1 [Example 12, 8-[(3R,5S)-3-(1,1-Dioxo-1lambda6-thietan-3-ylamino)-5-methyl-piperidin-1-yl]-quinoxaline-5-carbonitrile] | 75 to 150 | > 150
2 | C[C@H]1C[C@@H](NC2CS(=O)(=O)C2)CN(c2ccc(C(F)(F)F)c3ncccc23)C1 [Example 13, (1,1-Dioxo-1lambda6-thietan-3-yl)-[(3R,5S)-5-methyl-1-(8-trifluoromethyl-quinolin-5-yl)-piperidin-3-yl]-amine] | < 75 | < 75
3 | C[C@H]1C[C@@H](NCC2(O)CCOCC2)CN(c2ccc(C#N)c3nccnc23)C1 [Example 14, 8-{(3R,5S)-3-[(4-Hydroxy-tetrahydro-pyran-4-ylmethyl)-amino]-5-methyl-piperidin-1-yl}-quinoxaline-5-carbonitrile] | < 75 | < 75
4 | C[C@H]1C[C@@H](NCC(C)(F)C(=O)O)CN(c2ccc(C#N)c3nccnc23)C1 (stereo partly drawn) [Example 15, 3-[(3R,5S)-1-(8-Cyano-quinoxalin-5-yl)-5-methyl-piperidin-3-ylamino]-2-fluoro-2-methyl-propionic acid] | < 75 | < 75
5 | C[C@H]1C[C@@H](NCC(C)(C)O)CN(c2ccc(C#N)c3nccnc23)C1 [Example 16, 8-[(3R,5S)-3-(2-Hydroxy-2-methyl-propylamino)-5-methyl-piperidin-1-yl]-quinoxaline-5-carbonitrile formic acid] | < 75 | < 75
6 | C[C@H]1C[C@@H](NCC(=O)N2CCOCC2)CN(c2ccc(C(F)(F)F)c3ncccc23)C1 [Example 18, 2-{[(3R,5S)-5-methyl-1-[8-(trifluoromethyl)quinolin-5-yl]piperidin-3-yl]amino}-1-(morpholin-4-yl)ethan-1-one] | < 75 | < 75
7 | C[C@H]1C[C@@H](NCCNS(N)(=O)=O)CN(c2ccc(C(F)(F)F)c3ncccc23)C1 [Example 19] | < 75 | 75 to 150
8 | C[C@H]1C[C@@H](NCCCS(C)(=O)=O)CN(c2ccc(C#N)c3nccnc23)C1 [Example 21, 8-[(3R,5S)-3-[(3-methanesulfonylpropyl)amino]-5-methylpiperidin-1-yl]quinoxaline-5-carbonitrile methanesulfonamide] | < 75 | < 75
9 | C[C@H]1C[C@@H](NCCNS(C)(=O)=O)CN(c2ccc(C(F)(F)F)c3nccnc23)C1 [Example 23, N-{2-[(3R,5S)-5-Methyl-1-(8-trifluoromethyl-quinoxalin-5-yl)-piperidin-3-ylamino]-ethyl}-methanesulfonamide] | < 75 | < 75
10 | C[C@H]1C[C@@H](NCC2(O)CCOCC2)CN(c2ccc(C(F)(F)F)c3nccnc23)C1 [Example 26, 4-{[(3R,5S)-5-Methyl-1-(8-trifluoromethyl-quinoxalin-5-yl)-piperidin-3-ylamino]-methyl}-tetrahydro-pyran-4-ol] | < 75 | < 75
11 | C[C@H]1C[C@@H](NCC2CCC(=O)N2)CN(c2ccc(C(F)(F)F)c3nccnc23)C1 (stereo partly drawn) [Example 28, 5-{[(3R,5S)-5-Methyl-1-(8-trifluoromethyl-quinoxalin-5-yl)-piperidin-3-ylamino]-methyl}-pyrrolidin-2-one] | < 75 | < 75
12 | C[C@H]1C[C@@H](NCCC2CCNC2=O)CN(c2ccc(C(F)(F)F)c3ncccc23)C1 (stereo partly drawn) [Example 30, 3-{2-[(3R,5S)-5-Methyl-1-(8-trifluoromethyl-quinolin-5-yl)-piperidin-3-ylamino]-ethyl}-pyrrolidin-2-one] | < 75 | < 75
13 | C[C@H]1C[C@@H](NCCN2CCOC2=O)CN(c2ccc(C(F)(F)F)c3nccnc23)C1 [Example 31, 3-{2-[(3R,5S)-5-Methyl-1-(8-trifluoromethyl-quinoxalin-5-yl)-piperidin-3-ylamino]-ethyl}-oxazolidin-2-one formic acid] | < 75 | < 75
14 | C[C@H]1C[C@@H](NCCC(C)(C)O)CN(c2ccc(C(F)(F)F)c3ncccc23)C1 [Example 33, 2-Methyl-4-[(3R,5S)-5-methyl-1-(8-trifluoromethyl-quinolin-5-yl)-piperidin-3-ylamino]-butan-2-ol] | < 75 | < 75

The next lines start with the values.

Row | IC50 (TLR8) [nM] | IC50 (TLR7) [nM] | Compound
15 | < 75 | < 75 | C[C@H]1C[C@@H](NCC(C)(C)O)CN(c2ccc(C(F)(F)F)c3ncccc23)C1 [Example 17, 2-Methyl-1-[(3R,5S)-5-methyl-1-(8-trifluoromethyl-quinolin-5-yl)-piperidin-3-ylamino]-propan-2-ol]
16 | < 75 | < 75 | C[C@H]1C[C@@H](NCCNS(C)(=O)=O)CN(c2ccc(C(F)(F)F)c3ncccc23)C1 [Example 20, N-(2-{[(3R,5S)-5-methyl-1-[8-(trifluoromethyl)quinolin-5-yl]piperidin-3-yl]amino}ethyl)methanesulfonamide]
17 | < 75 | < 75 | C[C@H]1C[C@@H](NCCC(N)=O)CN(c2ccc(C(F)(F)F)c3nccnc23)C1 [Example 22, 3-[(3R,5S)-5-Methyl-1-(8-trifluoromethyl-quinoxalin-5-yl)-piperidin-3-ylamino]-propionamide]
18 | < 75 | 75 to 150 | CCS(=O)(=O)NCCN[C@@H]1C[C@H](C)CN(c2ccc(C(F)(F)F)c3nccnc23)C1 [Example 24]
19 | < 75 | < 75 | CC(=O)NCCN[C@@H]1C[C@H](C)CN(c2ccc(C(F)(F)F)c3nccnc23)C1 [Example 25, N-{2-[(3R,5S)-5-Methyl-1-(8-trifluoromethyl-quinoxalin-5-yl)-piperidin-3-ylamino]-ethyl}-acetamide formic acid]
20 | < 75 | < 75 | C[C@H]1C[C@@H](NCCN2CCNC2=O)CN(c2ccc(C(F)(F)F)c3ncccc23)C1 [Example 27, 1-{2-[(3R,5S)-5-Methyl-1-(8-trifluoromethyl-quinolin-5-yl)-piperidin-3-ylamino]-ethyl}-imidazolidin-2-one]
21 | < 75 | < 75 | C[C@H]1C[C@@H](NCCN2CCOC2=O)CN(c2ccc(C(F)(F)F)c3ncccc23)C1 [Example 29, 3-{2-[(3R,5S)-5-Methyl-1-(8-trifluoromethyl-quinolin-5-yl)-piperidin-3-ylamino]-ethyl}-oxazolidin-2-one]
22 | < 75 | < 75 | CNS(=O)(=O)CCCN[C@@H]1C[C@H](C)CN(c2ccc(C(F)(F)F)c3ncccc23)C1 [Example 32, 3-[(3R,5S)-5-Methyl-1-(8-trifluoromethyl-quinolin-5-yl)-piperidin-3-ylamino]-propane-1-sulfonic acid methylamide]

Source: US20210300940A1 (Merck Patent GmbH, priority 2018, published 2021)
